In patent publication US20100267561A1, “HERBICIDAL PYRIDAZINONE DERIVATIVES” (priority 2007, published 2010):

What was measured:
Experiment in all cases: Test E pre-/postemergence plant response
Type in all cases: in vivo
[1] = test system: quackgrass (Elytrigia repens); conditions: scale 0 to 100
Method in brief: (§1)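 Scores are visual estimates of control on a 0 to 100 scale, made against untreated plants 14 to 21 days after treatment in the greenhouse. Application was preemergence to sown seeds or postemergence to 2–18 cm plants (1- to 4-leaf stage), using a surfactant-containing non-phytotoxic solvent formulation.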

[2] = test system: goosegrass (Eleusine indica); conditions: scale 0 to 100
Method in brief: as §1

[3] = test system: common chickweed (Stellaria media); conditions: scale 0 to 100
Method in brief: as §1

[4] = test system: Russian thistle (Salsola kali); conditions: Preemergence, scale 0 to 100
Method in brief: as §1

[5] = test system: common groundsel (Senecio vulgaris); conditions: scale 0 to 100
Method in brief: as §1

[6] = test system: Virginia (V.) dayflower (Commelina virginica); conditions: scale 0 to 100
Method in brief: as §1

[7] = test system: naked crabgrass (Digitaria nuda); conditions: scale 0 to 100
Method in brief: as §1

[8] = test system: large crabgrass (Digitaria sanguinalis); conditions: scale 0 to 100
Method in brief: as §1

[9] = test system: common sowthistle (Sonchus oleraceous); conditions: scale 0 to 100
Method in brief: as §1

[10] = test system: prickly sida (Sida spinosa); conditions: scale 0 to 100
Method in brief: as §1

kochia (Kochia scoparia) = conditions: scale 0 to 100
Method in brief: as §1

With CCc1cc(-c2ccc(C(F)(F)F)cc2)nn1-c1c(OC(=O)OC(C)C)cnn(C)c1=O [Compound 12] the “Plant response rating, Quackgrass” value ([1]; 4 g ai/ha, Postemergence) was 20, the “Plant response rating, Quackgrass” value ([1]; 31 g ai/ha, Preemergence) was 80 and the “Plant response rating, Quackgrass” value ([1]; Postemergence, 8 g ai/ha) was 30. The “Plant response rating, Quackgrass” value ([1]; Postemergence, 31 g ai/ha) was 95, the “Plant response rating, Quackgrass” value ([1]; Preemergence, 4 g ai/ha) was 0 and the “Plant response rating, Goosegrass” value ([2]; 4 g ai/ha, Postemergence) was 10. The “Plant response rating, Goosegrass” value ([2]; 8 g ai/ha, Preemergence) was 65, the “Plant response rating, Goosegrass” value ([2]; 31 g ai/ha, Preemergence) was 75 and the “Plant response rating, Goosegrass” value ([2]; Postemergence, 8 g ai/ha) was 30. For the same compound, the “Plant response rating, Goosegrass” value ([2]; Postemergence, 31 g ai/ha) was 90, the “Plant response rating, Goosegrass” value ([2]; Preemergence, 4 g ai/ha) was 25 and the “Plant response rating, Chickweed” value ([3]; 4 g ai/ha, Postemergence) was 0. For the same compound, the “Plant response rating, Chickweed” value ([3]; Postemergence, 8 g ai/ha) was 0, the “Plant response rating, Chickweed” value ([3]; Postemergence, 31 g ai/ha) was 0 and the “Plant response rating, Thistle, Russian” value ([4]; 4 g ai/ha) was 0. The “Plant response rating, Groundsel” value ([5]; 4 g ai/ha, Postemergence) was 0, the “Plant response rating, Groundsel” value ([5]; 31 g ai/ha, Preemergence) was 0 and the “Plant response rating, Groundsel” value ([5]; Postemergence, 8 g ai/ha) was 0. The “Plant response rating, Groundsel” value ([5]; Postemergence, 31 g ai/ha) was 0, the “Plant response rating, Groundsel” value ([5]; Preemergence, 4 g ai/ha) was 0 and the “Plant response rating, Dayflower, V.” value ([6]; 4 g ai/ha, Postemergence) was 0. The “Plant response rating, Dayflower, V.” value ([6]; 8 g ai/ha, Preemergence) was 0, the “Plant response rating, Dayflower, V.” value ([6]; 31 g ai/ha, Preemergence) was 0 and the “Plant response rating, Dayflower, V.” value ([6]; Postemergence, 8 g ai/ha) was 0. For the same compound, the “Plant response rating, Dayflower, V.” value ([6]; Postemergence, 31 g ai/ha) was 0, the “Plant response rating, Dayflower, V.” value ([6]; Preemergence, 4 g ai/ha) was 0 and the “Plant response rating, Crabgrass, Naked” value ([7]; 4 g ai/ha, Postemergence) was 50. The “Plant response rating, Crabgrass, Naked” value ([7]; 8 g ai/ha, Preemergence) was 95, the “Plant response rating, Crabgrass, Naked” value ([7]; 31 g ai/ha, Preemergence) was 100 and the “Plant response rating, Crabgrass, Naked” value ([7]; Postemergence, 8 g ai/ha) was 90. The “Plant response rating, Crabgrass, Naked” value ([7]; Postemergence, 31 g ai/ha) was 95, the “Plant response rating, Crabgrass, Naked” value ([7]; Preemergence, 4 g ai/ha) was 15 and the “Plant response rating, Crabgrass, Large” value ([8]; 4 g ai/ha, Postemergence) was 0. For the same compound, the “Plant response rating, Crabgrass, Large” value ([8]; 8 g ai/ha, Preemergence) was 35, the “Plant response rating, Crabgrass, Large” value ([8]; 31 g ai/ha, Preemergence) was 98 and the “Plant response rating, Crabgrass, Large” value ([8]; Postemergence, 8 g ai/ha) was 65. For the same compound, the “Plant response rating, Crabgrass, Large” value ([8]; Postemergence, 31 g ai/ha) was 95, the “Plant response rating, Crabgrass, Large” value ([8]; Preemergence, 4 g ai/ha) was 0 and the “Plant response rating, Sowthistle” value ([9]; 4 g ai/ha, Postemergence) was 0. For the same compound, the “Plant response rating, Sowthistle” value ([9]; Postemergence, 8 g ai/ha) was 0, the “Plant response rating, Sowthistle” value ([9]; Postemergence, 31 g ai/ha) was 0 and the “Plant response rating, Sowthistle” value ([9]; Preemergence, 4 g ai/ha) was 0. The “Plant response rating, Prickly Sida” value ([10]; 4 g ai/ha, Postemergence) was 0, the “Plant response rating, Prickly Sida” value ([10]; 31 g ai/ha, Preemergence) was 0 and the “Plant response rating, Prickly Sida” value ([10]; Postemergence, 8 g ai/ha) was 0. For the same compound, the “Plant response rating, Prickly Sida” value ([10]; Postemergence, 31 g ai/ha) was 0, the “Plant response rating, Prickly Sida” value ([10]; Preemergence, 4 g ai/ha) was 0 and the “Plant response rating, Kochia” value (kochia (Kochia scoparia); 4 g ai/ha, Postemergence) was 0. The “Plant response rating, Kochia” value (kochia (Kochia scoparia); 31 g ai/ha, Preemergence) was 0, the “Plant response rating, Kochia” value (kochia (Kochia scoparia); Postemergence, 8 g ai/ha) was 0 and the “Plant response rating, Kochia” value (kochia (Kochia scoparia); Postemergence, 31 g ai/ha) was 0. The “Plant response rating, Kochia” value (kochia (Kochia scoparia); Preemergence, 4 g ai/ha) was 0.
With CCCc1cc(-c2ccc(Cl)cc2)nn1-c1c(O)cnn(C)c1=O [Compound 43] the “Plant response rating, Quackgrass” value ([1]; 16 g ai/ha, Preemergence) was 70, the “Plant response rating, Quackgrass” value ([1]; 31 g ai/ha, Preemergence) was 80 and the “Plant response rating, Quackgrass” value ([1]; 62 g ai/ha, Preemergence) was 95. For the same compound, the “Plant response rating, Quackgrass” value ([1]; Postemergence, 8 g ai/ha) was 0, the “Plant response rating, Quackgrass” value ([1]; Postemergence, 16 g ai/ha) was 0 and the “Plant response rating, Quackgrass” value ([1]; Postemergence, 31 g ai/ha) was 20. For the same compound, the “Plant response rating, Quackgrass” value ([1]; Postemergence, 62 g ai/ha) was 75, the “Plant response rating, Goosegrass” value ([2]; 16 g ai/ha, Preemergence) was 65 and the “Plant response rating, Goosegrass” value ([2]; 31 g ai/ha, Preemergence) was 95. The “Plant response rating, Goosegrass” value ([2]; 62 g ai/ha, Preemergence) was 98, the “Plant response rating, Goosegrass” value ([2]; Postemergence, 8 g ai/ha) was 20 and the “Plant response rating, Goosegrass” value ([2]; Postemergence, 16 g ai/ha) was 75. For the same compound, the “Plant response rating, Goosegrass” value ([2]; Postemergence, 31 g ai/ha) was 75, the “Plant response rating, Goosegrass” value ([2]; Postemergence, 62 g ai/ha) was 90 and the “Plant response rating, Chickweed” value ([3]; 16 g ai/ha, Preemergence) was 0. For the same compound, the “Plant response rating, Chickweed” value ([3]; 31 g ai/ha, Preemergence) was 0, the “Plant response rating, Chickweed” value ([3]; 62 g ai/ha, Preemergence) was 0 and the “Plant response rating, Thistle, Russian” value ([4]; 16 g ai/ha) was 0. The “Plant response rating, Thistle, Russian” value ([4]; 31 g ai/ha) was 0, the “Plant response rating, Thistle, Russian” value ([4]; 62 g ai/ha) was 0 and the “Plant response rating, Groundsel” value ([5]; 16 g ai/ha, Preemergence) was 0. The “Plant response rating, Groundsel” value ([5]; 31 g ai/ha, Preemergence) was 0, the “Plant response rating, Groundsel” value ([5]; 62 g ai/ha, Preemergence) was 0 and the “Plant response rating, Groundsel” value ([5]; Postemergence, 8 g ai/ha) was 0. The “Plant response rating, Groundsel” value ([5]; Postemergence, 16 g ai/ha) was 0, the “Plant response rating, Groundsel” value ([5]; Postemergence, 31 g ai/ha) was 0 and the “Plant response rating, Groundsel” value ([5]; Postemergence, 62 g ai/ha) was 0. For the same compound, the “Plant response rating, Dayflower, V.” value ([6]; 16 g ai/ha, Preemergence) was 0, the “Plant response rating, Dayflower, V.” value ([6]; 31 g ai/ha, Preemergence) was 0 and the “Plant response rating, Dayflower, V.” value ([6]; 62 g ai/ha, Preemergence) was 0. For the same compound, the “Plant response rating, Dayflower, V.” value ([6]; Postemergence, 8 g ai/ha) was 0, the “Plant response rating, Dayflower, V.” value ([6]; Postemergence, 16 g ai/ha) was 0 and the “Plant response rating, Dayflower, V.” value ([6]; Postemergence, 31 g ai/ha) was 0. The “Plant response rating, Dayflower, V.” value ([6]; Postemergence, 62 g ai/ha) was 0, the “Plant response rating, Crabgrass, Naked” value ([7]; 16 g ai/ha, Preemergence) was 35 and the “Plant response rating, Crabgrass, Naked” value ([7]; 31 g ai/ha, Preemergence) was 35. For the same compound, the “Plant response rating, Crabgrass, Naked” value ([7]; 62 g ai/ha, Preemergence) was 75, the “Plant response rating, Crabgrass, Naked” value ([7]; Postemergence, 8 g ai/ha) was 65 and the “Plant response rating, Crabgrass, Naked” value ([7]; Postemergence, 16 g ai/ha) was 65. The “Plant response rating, Crabgrass, Naked” value ([7]; Postemergence, 62 g ai/ha) was 100, the “Plant response rating, Crabgrass, Large” value ([8]; 16 g ai/ha, Preemergence) was 0 and the “Plant response rating, Crabgrass, Large” value ([8]; 31 g ai/ha, Preemergence) was 70. The “Plant response rating, Crabgrass, Large” value ([8]; 62 g ai/ha, Preemergence) was 80, the “Plant response rating, Crabgrass, Large” value ([8]; Postemergence, 8 g ai/ha) was 30 and the “Plant response rating, Crabgrass, Large” value ([8]; Postemergence, 16 g ai/ha) was 60. The “Plant response rating, Crabgrass, Large” value ([8]; Postemergence, 31 g ai/ha) was 80, the “Plant response rating, Crabgrass, Large” value ([8]; Postemergence, 62 g ai/ha) was 80 and the “Plant response rating, Sowthistle” value ([9]; 16 g ai/ha, Preemergence) was 0. For the same compound, the “Plant response rating, Sowthistle” value ([9]; 31 g ai/ha, Preemergence) was 0, the “Plant response rating, Sowthistle” value ([9]; 62 g ai/ha, Preemergence) was 0 and the “Plant response rating, Sowthistle” value ([9]; Postemergence, 8 g ai/ha) was 0. For the same compound, the “Plant response rating, Sowthistle” value ([9]; Postemergence, 16 g ai/ha) was 0, the “Plant response rating, Sowthistle” value ([9]; Postemergence, 31 g ai/ha) was 0 and the “Plant response rating, Sowthistle” value ([9]; Postemergence, 62 g ai/ha) was 0. For the same compound, the “Plant response rating, Prickly Sida” value ([10]; 16 g ai/ha, Preemergence) was 0, the “Plant response rating, Prickly Sida” value ([10]; 31 g ai/ha, Preemergence) was 0 and the “Plant response rating, Prickly Sida” value ([10]; 62 g ai/ha, Preemergence) was 0. For the same compound, the “Plant response rating, Prickly Sida” value ([10]; Postemergence, 8 g ai/ha) was 0, the “Plant response rating, Prickly Sida” value ([10]; Postemergence, 16 g ai/ha) was 0 and the “Plant response rating, Prickly Sida” value ([10]; Postemergence, 31 g ai/ha) was 0. For the same compound, the “Plant response rating, Prickly Sida” value ([10]; Postemergence, 62 g ai/ha) was 0, the “Plant response rating, Kochia” value (kochia (Kochia scoparia); 16 g ai/ha, Preemergence) was 0 and the “Plant response rating, Kochia” value (kochia (Kochia scoparia); 31 g ai/ha, Preemergence) was 0. The “Plant response rating, Kochia” value (kochia (Kochia scoparia); 62 g ai/ha, Preemergence) was 0.
